In patent publication US10227323B2, “Glucosylceramide synthase inhibitors for the treatment of diseases” (BIOMARIN PHARMACEUTICAL INC., priority 2013, dated 2019):

Molecular target: T1, GCS (Canis lupus familiaris, UniProt A0A8I3MXG6)
T1 sequence (A0A8I3MXG6 1-394): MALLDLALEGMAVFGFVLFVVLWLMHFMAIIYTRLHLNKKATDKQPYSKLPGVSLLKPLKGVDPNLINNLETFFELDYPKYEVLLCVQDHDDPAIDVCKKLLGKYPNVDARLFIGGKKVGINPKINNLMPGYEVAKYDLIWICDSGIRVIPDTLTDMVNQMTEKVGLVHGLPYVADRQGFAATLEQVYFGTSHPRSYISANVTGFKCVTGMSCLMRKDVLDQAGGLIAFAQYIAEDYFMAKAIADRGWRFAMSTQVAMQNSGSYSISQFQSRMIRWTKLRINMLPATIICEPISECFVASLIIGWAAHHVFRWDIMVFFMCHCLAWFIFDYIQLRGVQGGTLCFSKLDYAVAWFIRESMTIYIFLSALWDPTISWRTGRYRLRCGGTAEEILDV
Experiment: Assay 1: GCS Enzymatic Assay (MDCK cell lysate, C6-NBD-Ceramide, LC/MS)
Type: biochemical, canine
Conditions: Table 1; MDCK cell lysate; read-out: IC50 (nM) generated from Assay 1
Method in brief: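 LC/MS/MS measurement of glucosylceramide and NBD-ceramide after a 1 h, 37 °C reaction with 100 μM UDP-glucose and 10 μM C6-NBD-ceramide gave IC50s or percent inhibition.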

Structure (SMILES)	IC50 [nM]
O=C(N[C@H](CN1CCCC1)[C@H](O)c1ccc2c(c1)OCCO2)C(=O)C1Cc2ccc(Cl)cc2C1 (stereo partly drawn) [Compound 74, 2-(5-chloro-2,3-dihydro-1H-inden-2-yl)-N-((1R,2R)-1-(2,3-dihydrobenzo[b][1,4]dioxin-6-yl)-1-hydroxy-3-(pyrrolidin-1-yl)propan-2-yl)-2-oxoacetamide]	< 50

Same assay, conditions: Table 2; data marked by *

Structure (SMILES)	% inhibition generated from Assay 1
O=C(N[C@H](CN1CCC1)[C@H](O)c1ccc(OC2CC2)c(Cl)c1)C(F)(F)c1ccc(-c2ccc(F)cc2)cc1 [Compound 162, N-((1R,2R)-3-(azetidin-1-yl)-1-(3-chloro-4-cyclopropoxyphenyl)-1-hydroxypropan-2-yl)-2,2-difluoro-2-(4′-fluoro-[1,1′-biphenyl]-4-yl)acetamide]	A* (the compound had a % inhibition of a percent inhibition of greater than or equal to about 50%)
O=C(N[C@H](CN1CCCC1)[C@H](O)c1ccc(OC2CC2)c(Cl)c1)C(F)(F)c1ccc(-c2ccc(F)cc2)s1 [Compound 218, N-((1R,2R)-1-(3-chloro-4-cyclopropoxyphenyl)-1-hydroxy-3-(pyrrolidin-1-yl)propan-2-yl)-2,2-difluoro-2-(5-(4-fluorophenyl)thiophen-2-yl)acetamide]	B* (the compound had a % inhibition of greater than or equal to about 3% but less than about 50%)
O=C(N[C@H](CN1CCC1)[C@H](O)c1ccc(OC2CC2)c(Cl)c1)/C(=N/O)c1cc2cc(Cl)ccc2o1 [Compound 169, (E)-N-((1R,2R)-3-(azetidin-1-yl)-1-(3-chloro-4-cyclopropoxyphenyl)-1-hydroxypropan-2-yl)-2-(5-chlorobenzofuran-2-yl)-2-(hydroxyimino)acetamide]	A* (the compound had a % inhibition of a percent inhibition of greater than or equal to about 50%)
O=C(N[C@H](CN1CCCC1)[C@H](O)c1cc(F)c2c(c1)OCCO2)C(F)(F)c1csc(-c2ccc(F)cc2)n1 [Compound 221, 2,2-difluoro-N-((1R,2R)-1-(8-fluoro-2,3-dihydrobenzo[b][1,4]dioxin-6-yl)-1-hydroxy-3-(pyrrolidin-1-yl)propan-2-yl)-2-(2-(4-fluorophenyl)thiazol-4-yl)acetamide]	A* (the compound had a % inhibition of a percent inhibition of greater than or equal to about 50%)
Cn1ncc2ccc(-c3cccc(C(=O)C(=O)N[C@H](CN4CCCC4)[C@H](O)c4ccc(OC5CC5)c(Cl)c4)c3)cc21 [Example 261, N-((1R,2R)-1-(3-chloro-4-cyclopropoxyphenyl)-1-hydroxy-3-(pyrrolidin-1-yl)propan-2-yl)-2-(3-(1-methyl-1H-indazol-6-yl)phenyl)-2-oxoacetamide]	A* (the compound had a % inhibition of a percent inhibition of greater than or equal to about 50%)

Same assay, conditions: Table 2; data without asterisk; read-out: IC50 (nM) generated from Assay 1

Structure (SMILES)	IC50 [nM]
Cc1c2ccc(-c3ccc(C(=O)C(=O)N[C@H](CN4CCCC4)[C@H](O)c4cc(F)c5c(c4)OCCO5)cc3)cc2nn1C(C)C [Example 335, N-((1R,2R)-1-(8-fluoro-2,3-dihydrobenzo[b][1,4]dioxin-6-yl)-1-hydroxy-3-(pyrrolidin-1-yl)propan-2-yl)-2-(4-(2-isopropyl-3-methyl-2H-indazol-6-yl)phenyl)-2-oxoacetamide]	< 50
CC(C)n1ccc2cc(-c3ccc(C(=O)C(=O)N[C@H](CN4CCCC4)[C@H](O)c4ccc(OC5CC5)c(Cl)c4)cc3)ccc21 [Example 266, N-((1R,2R)-1-(3-chloro-4-cyclopropoxyphenyl)-1-hydroxy-3-(pyrrolidin-1-yl)propan-2-yl)-2-(4-(1-isopropyl-1H-indo1-5-yl)phenyl)-2-oxoacetamide]	< 50
CC(C)n1ccc(-c2ccc(C(=O)C(=O)N[C@H](CN3CCCC3)[C@H](O)c3ccc(OC4CC4)c(Cl)c3)cc2)n1 [Example 351, N-((1R,2R)-1-(3-chloro-4-cyclopropoxyphenyl)-1-hydroxy-3-(pyrrolidin-1-yl)propan-2-yl)-2-(4-(1-isopropyl-1H-pyrazol-3-yl)phenyl)-2-oxoacetamide]	< 50
O=C(N[C@H](CN1CCCC1)[C@H](O)c1cc(F)c2c(c1)OCCO2)C(=O)c1cccc(Oc2ccc(F)cc2)c1 [Compound 203, N-((1R,2R)-1-(8-fluoro-2,3-dihydrobenzo[b][1,4]dioxin-6-yl)-1-hydroxy-3-(pyrrolidin-1-yl)propan-2-yl)-2-(3-(4-fluorophenoxy)phenyl)-2-oxoacetamide]	< 50
O=C(N[C@H](CN1CCCC1)[C@H](O)c1cc(F)c2c(c1)OCCO2)C(=O)c1ccc(-c2ccc3oncc3c2)cc1 [Example 290, 2-(4-(benzo[d]isoxazol-5-yl)phenyl)-N-((1R,2R)-1-(8-fluoro-2,3-dihydrobenzo[b][1,4]dioxin-6-yl)-1-hydroxy-3-(pyrrolidin-1-yl)propan-2-yl)-2-oxoacetamide]	< 50
O=C(N[C@H](CN1CCCC1)[C@H](O)c1ccc(OC2CC2)c(Cl)c1)C(=O)c1ccc(C2CCOCC2)cc1 [Compound 372, N-((1R,2R)-1-(3-chloro-4-cyclopropoxyphenyl)-1-hydroxy-3-(pyrrolidin-1-yl)propan-2-yl)-2-oxo-2-(4-(tetrahydro-2H-pyran-4-yl)phenyl)acetamide]	< 50
O=C(N[C@H](CN1CCC1)[C@H](O)c1cc(F)c2c(c1)OCCO2)C(F)(F)c1cc2cc(Cl)ccc2o1 [Compound 83, N-((1R,2R)-3-(azetidin-1-yl)-1-(8-fluoro-2,3-dihydrobenzo[b][1,4]dioxin-6-yl)-1-hydroxypropan-2-yl)-2-(5-chlorobenzofuran-2-yl)-2,2-difluoroacetamide]	< 50
O=C(N[C@H](CN1CCCC1)[C@H](O)c1ccc(OC2CC2)c(Cl)c1)C(=O)c1cc2ccc(Cl)cc2o1 [Compound 365, N-((1R,2R)-1-(3-chloro-4-cyclopropoxyphenyl)-1-hydroxy-3-(pyrrolidin-1-yl)propan-2-yl)-2-(6-chlorobenzofuran-2-yl)-2-oxoacetamide]	< 50
Cn1ncc2ccc(-c3ccc(C(=O)C(=O)N[C@H](CN4CCCC4)[C@H](O)c4cc(F)c5c(c4)OCCO5)cc3)cc21 [Compound 246, N-((1R,2R)-1-(8-fluoro-2,3-dihydrobenzo[b][1,4]dioxin-6-yl)-1-hydroxy-3-(pyrrolidin-1-yl)propan-2-yl)-2-(4-(1-methyl-1H-indazol-6-yl)phenyl)-2-oxoacetamide]	< 50
O=C(N[C@H](CN1CCCC1)[C@H](O)c1ccc(OC2CC2)c(Cl)c1)C(=O)c1ccc(-c2ccccn2)cc1 [Compound 214, N-((1R,2R)-1-(3-chloro-4-cyclopropoxyphenyl)-1-hydroxy-3-(pyrrolidin-1-yl)propan-2-yl)-2-oxo-2-(4-(pyridin-2-yl)phenyl)acetamide]	< 50
O=C(N[C@H](CN1CCC1)[C@H](O)c1cc(F)c2c(c1)OCCO2)C(=O)c1ccc(-c2ccc3c(cnn3C3CC3)c2)cc1 [Example 278, N-((1R,2R)-3-(azetidin-1-yl)-1-(8-fluoro-2,3-dihydrobenzo[b][1,4]dioxin-6-yl)-1-hydroxypropan-2-yl)-2-(4-(1-cyclopropyl-1H-indazol-5-yl)phenyl)-2-oxoacetamide]	< 50
O=C(N[C@H](CN1CCCC1)[C@H](O)c1ccc(OC2CC2)c(Cl)c1)C(=O)c1ccc(N2CCOCC2)cc1 [Compound 368, N-((1R,2R)-1-(3-chloro-4-cyclopropoxyphenyl)-1-hydroxy-3-(pyrrolidin-1-yl)propan-2-yl)-2-(4-morpholinophenyl)-2-oxoacetamide]	< 50
O=C(N[C@H](CN1CCCC1)[C@H](O)c1cc(F)c2c(c1)OCCO2)C(=O)c1ccc(N2CCCCC2)cc1 [Compound 200, N-((2R)-1-(8-fluoro-2,3-dihydrobenzo[b][1,4]dioxin-6-yl)-1-hydroxy-3-(pyrrolidin-1-yl)propan-2-yl)-2-oxo-2-(4-(piperidin-1-yl)phenyl)acetamide]	< 50
O=C(N[C@H](CN1CCCC1)[C@H](O)c1ccc2c(c1)OCCO2)C(=O)c1cccc(Oc2ccc(F)cc2)c1 [Compound 197, N-((1R,2R)-1-(2,3-dihydrobenzo[b][1,4]dioxin-6-yl)-1-hydroxy-3-(pyrrolidin-1-yl)propan-2-yl)-2-(3-(4-fluorophenoxy)phenyl)-2-oxoacetamide]	< 50
O=C(N[C@H](CN1CCCC1)[C@H](O)c1ccc(OC2CC2)c(Cl)c1)/C(=N/O)c1cc2cc(Cl)ccc2o1 [Compound 136, (E)-N-((1R,2R)-1-(3-chloro-4-cyclopropoxyphenyl)-1-hydroxy-3-(pyrrolidin-1-yl)propan-2-yl)-2-(5-chlorobenzofuran-2-yl)-2-(hydroxyimino)acetamide]	< 50

Same assay, conditions: Table 3; MDCK cell lysate; read-out: IC50 (nM) generated from Assay 1

Structure (SMILES)	IC50 [nM]
O=C(N[C@H](CN1CCCC1)[C@H](O)c1ccc(Cl)cc1)C(=O)c1ccc(-c2ccc(F)cc2)cc1 [Example 389, N-((1R,2R)-1-(4-chlorophenyl)-1-hydroxy-3-(pyrrolidin-1-yl)propan-2-yl)-2-(4′-fluoro-[1,1′-biphenyl]-4-yl)-2-oxoacetamide]	50 to 5000
O=C(N[C@H](CN1CCCC1)[C@H](O)c1ccc(OC2CC2)c(Cl)c1)C(=O)c1ccc(-n2ccnn2)cc1 [Example 385, 2-(4-(1H-1,2,3-triazol-1-yl)phenyl)-N-((1R,2R)-1-(3-chloro-4-cyclopropoxyphenyl)-1-hydroxy-3-(pyrrolidin-1-yl)propan-2-yl)-2-oxoacetamide]	50 to 5000
